Assay results published in patent US4927958A, “Styryl ketones” (Hoffmann-La Roche Inc., priority 1987, dated 1990).

Legend:
[1] = Acute toxicity (single oral administration to mice); conditions: mouse, in vivo, read-out: Toxicity LD 50
Text: Representative compounds of formulae I and II have been investigated with respect to their mucosa-protective and gastric acid secretion-inhibiting properties as well as to their toxicity.
(§1) In the following Table there are given for a series of representative compounds of formula I and for two compounds of formula II the results of the testing with respect to their mucosa-protective activity ("ethanol test") and to their gastric acid secretion-inhibiting activity. Moreover, this Table contains data concerning the acute toxicity (LD50 in the case of single oral administration to mice).

[2] = tested on: ethanol-induced lesions of the mucous membrane of the stomach; experiment: Ethanol test (mucosa-protective activity); assay type: in vivo, male rats; conditions: rats; oral, 30 minutes prior to absolute ethanol (1 ml per rat); dosage reducing by 50% the number of lesions vs control; read-out: Ethanol Test ID 50
Description: The experimental procedure described hereinafter has been used to determine the mucosa-protective property:
The oral administration of absolute ethanol to male rats in a dosage of 1 ml per rat leads within 1 hour to bloody lesions of the mucous membrane of the stomach. Various dosages of the substances to be tested (suspended in 0.125% carboxymethylcellulose) or of the vehicle alone (control) are administered to the rats orally (1 ml per rat) 30 minutes prior to the treatment with ethanol. One hour after the administration of the ethanol the animals are sacrificed, their stomachs are examined for the presence of lesions, and the number and size of such lesions are mentioned. The ID50 is that dosage of a test substance which reduces by 50% the number of lesions in comparison to the control group.
as §1

[3] = tested on: gastric acid secretion; experiment: Gastric acid secretion-inhibiting activity (pylorus ligation, Shay et al.); assay type: in vivo, male rats; conditions: Rattus norvegicus, 5 h; pylorus-ligated rats; intraduodenal; five hours after ligation; dosage giving 50% decrease of the secretion vs control; read-out: Gastric acid secretion-inhibition ID 50
Description: The test procedure described hereinafter was used to determine the gastric acid secretion-inhibiting activity:
The pylorus of male rats is ligated under slight ether narcosis in accordance with the procedure described by Shay et al. in Gastroenterology 5, 43 (1945). The substances to be tested, suspended in 0.5% carboxymethylcellulose, are administered intraduodenally. Control animals are treated only with the vehicle. Five hours after the ligation the animals are sacrificed, the volume and acidity of their gastric fluid are determined, and the values obtained are compared with those of control animals. The ID50 is that dosage of a test substance which brings about a 50% decrease of the secretion in comparison to the control animals.
as §1

SMILES	LD50 [1] [mg/kg]	ED50 [2] [mg/kg]	ED50 [3] [mg/kg]
COc1ccc(/C=C/C(=O)/C=C/C(=O)O)cc1 [B, (E,E)6-(4-Methoxyphenyl)-4-oxo-2,5-hexadienoic acid]	312 to 625	0.7	–
O=C(O)/C=C/C(=O)/C=C/c1ccc(F)cc1 [E, (E,E)6-(4-Fluorophenyl)-4-oxo-2,5-hexadienoic acid]	312 to 625	1.9	–
COCCOCCOC(=O)C#CC(O)/C=C/c1ccc(OC)cc1 (stereo not drawn) [J, 2(2-Methoxyethoxy)ethyl (E)4-hydroxy-6-(4-methoxy-phenyl)-5-hexen-2-ynoate]	> 4000	3.4	–
COCCOCCOC(=O)/C=C/C(=O)/C=C/c1cccc(OC)c1 [G, 2(2-Methoxyethoxy)ethyl (E,E)6-(3-methoxyphenyl)-4-oxo-2,5-hexadienoate]	500 to 1000	2.7	–
COc1cccc(/C=C/C(=O)/C=C/C(=O)O)c1 [A, (E,E)6-(3-Methoxyphenyl)-4-oxo-2,5-hexadienoic acid]	312 to 625	0.8	9
COc1ccc(/C=C/C(=O)/C=C\C(=O)O)cc1 [F, (2Z,5E)6-(4-Methoxyphenyl)-4-oxo-2,5-hexadienoic acid]	156 to 312	0.7	–
COCCOCCOC(=O)C#CC(=O)/C=C/c1ccc(OC)cc1 [H, 2(2-Methoxyethoxy)ethyl (E)6-(4-methoxyphenyl)-4-oxo-5-hexen-2-ynoate]	2500 to 5000	2.7	–
COC(=O)C#CC(O)/C=C/c1ccc(OC)cc1 (stereo not drawn) [I, Methyl (E)4-hydroxy-6-(4-methoxyphenyl)-5-hexen-2-ynoate]	1000 to 2000	2.1	–
COC(=O)/C=C\C(=O)/C=C/c1ccc(OC)cc1 [C, Methyl (2Z,5E)6-(4-methoxyphenyl)-4-oxo-2,5-hexadienoate]	625 to 1250	1	–
COc1ccc(/C=C/C(=O)C#CC(=O)O)cc1 [D, (E)6-(4-Methoxyphenyl)-4-oxo-5-hexen-2-ynoic acid]	500 to 1000	0.5	–
